Experimental data: publication PMC12147034, “Identification of alkynyl nicotinamide HSN748 as a RET solvent-front mutant inhibitor with intracranial efficacy” (RSC Medicinal Chemistry, 2025)
Substitutions are numbered along the chain they refer to.

Experiments:
Assay type in all cases: cell-based
B/KR(G810C/R/S) cells = experiment: Cell viability assay, RET solvent-front mutants stated jointly; settings: read-out: IC50s for B/KR(G810C/R/S) cells; stated jointly for G810C, G810R and G810S
Method: (§1) BaF3 cell lines expressing a flag-tagged KIF5B-RET (B/KR) and the KIF5B-RET containing G810C, G810R, G810S, V804M, V804L mutations were as reported.[8,13,17,21–23] […] Infected cells were cultured for two weeks, and cells with high GFP intensity were sorted into a 96-well plate (1 cell/well). After the expansion of growing cell lines, they were screened for a high level of luciferase activity by luminescence imaging after exposure to D-luciferin. IMR-90 cells were from ATCC.
(§2) The TEL-VEGFR2 cDNA was then subcloned into pLentP lentiviral vector.[21] and BaF3/TEL-VEGFR2 (B/TV) cells were generated by infecting BaF3 cells with the lentiviral TEL-VEGFR2 as described. Cell viability assay was performed using CellTiter-Glo reagent (G7573, Promega, Madison, WI, USA) after 3 days of drug treatment as described for BaF3-derived cells and 5 days for IMR-90 cells.

[1] = system: KIF5B-RET autophosphorylation in B/KR and mutant cells; experiment: Immunoblotting analysis of cell lysates; settings: Fig. S1A
Description: Figure S1. Immunoblotting analyses of cell lysates.
(A) Immunoblotting analysis of compounds on inhibition of KR or its mutant kinase activity and
induction of apoptosis in B/KR and mutant cells. (B) Immunoblotting analysis of HSN748-treated
(1 picture or pasted object on this page, not shown here)

[2] = molecular target: T1, B/KR(G810R) cells, KIF5B-RET G810R (Homo sapiens, UniProt P07949+P33176, G810R); experiment: Cell viability assay (CellTiter-Glo, 3 days) in B/KR(G810R) cells
T1 construct: FLAG; expressed in transfected cells; host or cells: BaF3
T1 sequence (P07949 713-1063 G810R limits assumed): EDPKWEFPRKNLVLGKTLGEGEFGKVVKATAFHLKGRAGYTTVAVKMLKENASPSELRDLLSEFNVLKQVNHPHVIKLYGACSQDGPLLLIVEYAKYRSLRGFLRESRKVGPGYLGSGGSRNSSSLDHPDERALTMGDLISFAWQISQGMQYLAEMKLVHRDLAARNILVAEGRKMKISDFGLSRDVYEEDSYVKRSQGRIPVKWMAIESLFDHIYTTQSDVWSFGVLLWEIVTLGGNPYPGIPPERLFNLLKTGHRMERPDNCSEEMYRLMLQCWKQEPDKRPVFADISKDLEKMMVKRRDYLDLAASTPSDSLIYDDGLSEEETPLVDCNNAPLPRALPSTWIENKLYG
Method: as §1, §2

[3] = molecular target: T2, B/KR(G810S) cells, KIF5B-RET G810S (Homo sapiens, UniProt P07949+P33176, G810S); experiment: Cell viability assay (CellTiter-Glo, 3 days) in B/KR(G810S) cells
T2 construct: FLAG; expressed in transfected cells; host or cells: BaF3
T2 sequence (P07949 713-1063 G810S limits assumed): T1 sequence (P07949 713-1063 G810R limits assumed) with R98S
Method: as §1, §2

| Compound | IC50 (B/KR(G810C/R/S) cells) [nM] | KIF5B-RET autophosphorylation and apoptosis (immunoblotting) [1] | IC50 [2] [nM] | IC50 [3] [nM] |
| --- | --- | --- | --- | --- |
| CCOc1ccc2ncc(C#Cc3cncc(C(=O)Nc4ccc(CN5CCN(C)CC5)c(C(F)(F)F)c4)c3)n2n1 [HSND14, 5-((6-Ethoxyimidazo[1,2-b]pyridazin-3-yl)ethynyl)-N-(4-((4-methylpiperazin-1-yl)methyl)-3-(trifluoromethyl)phenyl)nicotinamide] | < 33 | inhibit KIF5B-RET autophosphorylation and induce apoptosis at low nanomolar concentrations | 33 ± 0.67 | 5.21 ± 0.15 |
| Cc1n[nH]c2ncc(C#Cc3cncc(C(=O)Nc4ccc(CN5CCN(C)CC5)c(C(F)(F)F)c4)c3)cc12 [HSND19, 5-((3-Methyl-1H-pyrazolo[3,4-b]pyridin-5-yl)ethynyl)-N-(4-((4-methylpiperazin-1-yl)methyl)-3-(trifluoromethyl)phenyl)nicotinamide] | < 33 | inhibit KIF5B-RET autophosphorylation and induce apoptosis at low nanomolar concentrations | 23.1 ± 1.39 | 4 ± 0.16 |
| CN1CCN(Cc2ccc(NC(=O)c3cncc(C#Cc4cnc5cccnn45)c3)cc2C(F)(F)F)CC1 [HSN748] | < 33 | inhibit KIF5B-RET autophosphorylation and induce apoptosis at low nanomolar concentrations | 20.6 ± 1.42 | 13.9 ± 0.32 |
